Test results: patent publication US8785457B2 (Cellzome Limited, priority 2009, dated 2014)
Read-outs that look alike come from different tables or passages of the source.

Assays:
[1] = molecular target: T1, PI3 Kbeta (PI3 Kb) (Homo sapiens, UniProt P42338); test: kinobeads assay, PI3Kbeta; assay type: binding
T1 construct: endogenous in cells; host or cells: cell lysate
Method in brief: (§1)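 Competitive binding in cell lysate: test compounds at various concentrations compete with beads carrying an immobilized phenylmorpholin-chromen ligand. Bead-captured kinases are eluted and quantified by multiplexed immunodetection. IC50 values come from dose-response curves for each kinase.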

[2] = molecular target: T2, PI3 Kgamma (PI3 Kg) (Homo sapiens, UniProt P48736); test: kinobeads assay, PI3Kgamma; assay type: binding
T2 construct: endogenous in cells; host or cells: cell lysate
T2 sequence (P48736 whole entry): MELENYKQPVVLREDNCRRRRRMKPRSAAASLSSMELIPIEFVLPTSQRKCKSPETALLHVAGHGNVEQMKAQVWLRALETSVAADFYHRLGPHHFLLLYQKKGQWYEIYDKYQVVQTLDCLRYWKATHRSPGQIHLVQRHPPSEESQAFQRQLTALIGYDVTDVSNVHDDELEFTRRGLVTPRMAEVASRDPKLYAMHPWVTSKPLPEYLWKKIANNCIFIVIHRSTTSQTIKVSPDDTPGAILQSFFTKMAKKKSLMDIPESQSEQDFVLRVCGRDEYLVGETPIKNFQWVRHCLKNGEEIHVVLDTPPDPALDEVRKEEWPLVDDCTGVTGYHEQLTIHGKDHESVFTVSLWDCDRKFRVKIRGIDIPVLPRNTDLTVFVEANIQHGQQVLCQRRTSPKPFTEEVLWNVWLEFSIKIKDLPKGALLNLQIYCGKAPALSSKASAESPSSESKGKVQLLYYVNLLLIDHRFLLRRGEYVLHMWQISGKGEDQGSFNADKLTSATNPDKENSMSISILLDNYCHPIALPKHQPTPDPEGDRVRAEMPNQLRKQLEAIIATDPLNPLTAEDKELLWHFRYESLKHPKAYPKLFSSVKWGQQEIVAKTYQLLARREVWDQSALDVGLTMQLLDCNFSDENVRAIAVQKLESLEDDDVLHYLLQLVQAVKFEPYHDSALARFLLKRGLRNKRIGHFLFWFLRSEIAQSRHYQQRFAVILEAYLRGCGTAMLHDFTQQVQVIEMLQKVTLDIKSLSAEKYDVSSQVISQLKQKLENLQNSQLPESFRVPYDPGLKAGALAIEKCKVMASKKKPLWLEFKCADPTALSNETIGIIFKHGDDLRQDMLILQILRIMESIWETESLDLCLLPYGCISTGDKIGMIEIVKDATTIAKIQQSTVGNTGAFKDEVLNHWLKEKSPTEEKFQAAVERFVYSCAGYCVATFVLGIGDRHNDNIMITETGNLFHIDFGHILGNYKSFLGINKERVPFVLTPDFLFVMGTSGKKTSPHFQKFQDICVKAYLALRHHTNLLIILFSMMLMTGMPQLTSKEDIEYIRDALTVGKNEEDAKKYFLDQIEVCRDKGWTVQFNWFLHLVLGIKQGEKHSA
Method in brief: as §1

[3] = molecular target: T3, mTOR (Homo sapiens, UniProt P42345); test: mTOR kinobeads assay (competitive binding in Jurkat cell lysate, immunodetection)
T3 construct: endogenous in cells; host or cells: Jurkat, clone E6-1 (ATCC TIB-152) cell lysate
Method in brief: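 IC50 derived from dose-response curves of mTOR captured on immobilized phenylmorpholin-chromen beads, detected by antibody dot blot with infrared fluorescence.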

[4] = molecular target: T4, PI3Kalpha (PI3Ka) (Homo sapiens, UniProt P42336); test: kinobeads assay, PI3Kalpha; assay type: binding
T4 construct: endogenous in cells; host or cells: cell lysate
T4 sequence (P42336 whole entry): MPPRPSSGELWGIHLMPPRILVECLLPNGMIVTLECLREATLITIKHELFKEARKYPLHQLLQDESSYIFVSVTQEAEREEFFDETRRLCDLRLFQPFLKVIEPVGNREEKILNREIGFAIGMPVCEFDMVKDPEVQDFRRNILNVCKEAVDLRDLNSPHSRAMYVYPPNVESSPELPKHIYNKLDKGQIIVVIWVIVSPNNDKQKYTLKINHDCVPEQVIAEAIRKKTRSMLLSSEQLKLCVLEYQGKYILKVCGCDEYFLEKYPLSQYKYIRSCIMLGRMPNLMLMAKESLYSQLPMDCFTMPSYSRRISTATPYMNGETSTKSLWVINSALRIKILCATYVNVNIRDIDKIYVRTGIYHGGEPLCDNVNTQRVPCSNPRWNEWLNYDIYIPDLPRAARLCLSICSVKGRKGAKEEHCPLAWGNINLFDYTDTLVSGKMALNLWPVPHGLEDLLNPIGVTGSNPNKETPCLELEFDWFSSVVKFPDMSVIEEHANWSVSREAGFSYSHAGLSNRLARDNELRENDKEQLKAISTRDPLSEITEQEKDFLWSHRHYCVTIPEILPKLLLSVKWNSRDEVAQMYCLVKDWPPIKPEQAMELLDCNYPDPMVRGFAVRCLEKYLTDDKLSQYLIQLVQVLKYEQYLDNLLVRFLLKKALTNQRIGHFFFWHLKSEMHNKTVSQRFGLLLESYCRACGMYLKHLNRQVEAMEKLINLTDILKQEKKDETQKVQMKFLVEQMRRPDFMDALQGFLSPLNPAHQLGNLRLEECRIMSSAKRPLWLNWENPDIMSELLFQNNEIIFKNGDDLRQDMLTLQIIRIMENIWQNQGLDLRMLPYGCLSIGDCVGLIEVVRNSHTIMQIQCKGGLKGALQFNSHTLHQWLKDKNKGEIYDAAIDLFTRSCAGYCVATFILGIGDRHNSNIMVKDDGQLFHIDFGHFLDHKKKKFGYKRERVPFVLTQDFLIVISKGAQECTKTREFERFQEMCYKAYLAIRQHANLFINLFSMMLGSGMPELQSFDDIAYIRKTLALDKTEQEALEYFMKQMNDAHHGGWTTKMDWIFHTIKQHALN
T4 sequence (P27986 whole entry partner): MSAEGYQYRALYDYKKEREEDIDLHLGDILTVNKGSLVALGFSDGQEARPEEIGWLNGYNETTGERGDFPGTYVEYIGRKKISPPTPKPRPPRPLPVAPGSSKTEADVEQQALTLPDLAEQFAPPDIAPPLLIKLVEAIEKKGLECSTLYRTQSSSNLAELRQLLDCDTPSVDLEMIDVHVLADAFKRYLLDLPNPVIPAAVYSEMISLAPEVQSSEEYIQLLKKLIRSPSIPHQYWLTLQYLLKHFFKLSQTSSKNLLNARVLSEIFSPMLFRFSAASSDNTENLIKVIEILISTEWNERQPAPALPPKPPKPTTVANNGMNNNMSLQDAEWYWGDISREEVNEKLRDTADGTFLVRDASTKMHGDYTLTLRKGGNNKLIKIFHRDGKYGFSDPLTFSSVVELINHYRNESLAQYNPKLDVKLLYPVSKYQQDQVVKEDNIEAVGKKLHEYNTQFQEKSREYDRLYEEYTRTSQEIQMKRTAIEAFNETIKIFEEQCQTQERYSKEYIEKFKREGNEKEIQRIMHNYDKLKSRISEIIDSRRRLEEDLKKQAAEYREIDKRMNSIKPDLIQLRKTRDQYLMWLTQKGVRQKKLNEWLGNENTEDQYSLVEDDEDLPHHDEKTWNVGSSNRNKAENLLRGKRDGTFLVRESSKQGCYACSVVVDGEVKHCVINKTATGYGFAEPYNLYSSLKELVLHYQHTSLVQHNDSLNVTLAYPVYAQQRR
Method in brief: as §1

[5] = kinobeads assay, Table 6, read-out: Inhibition values (IC50) PI3Kb
[6] = kinobeads assay, Table 6, read-out: Inhibition values (IC50) PI3Kg
[7] = kinobeads assay, Table 4, read-out: Inhibition values (IC50) mTor
[8] = kinobeads assay, Table 6, read-out: Inhibition values (IC50) mTOR
[9] = Further Kinobeads Data, read-out: PI3Kb
[10] = Further Kinobeads Data, read-out: PI3Kg
[11] = Further Kinobeads Data, read-out: mTor
[12] = Further Kinobeads Data, read-out: PI3Ka

T1 sequence (P42338 whole entry): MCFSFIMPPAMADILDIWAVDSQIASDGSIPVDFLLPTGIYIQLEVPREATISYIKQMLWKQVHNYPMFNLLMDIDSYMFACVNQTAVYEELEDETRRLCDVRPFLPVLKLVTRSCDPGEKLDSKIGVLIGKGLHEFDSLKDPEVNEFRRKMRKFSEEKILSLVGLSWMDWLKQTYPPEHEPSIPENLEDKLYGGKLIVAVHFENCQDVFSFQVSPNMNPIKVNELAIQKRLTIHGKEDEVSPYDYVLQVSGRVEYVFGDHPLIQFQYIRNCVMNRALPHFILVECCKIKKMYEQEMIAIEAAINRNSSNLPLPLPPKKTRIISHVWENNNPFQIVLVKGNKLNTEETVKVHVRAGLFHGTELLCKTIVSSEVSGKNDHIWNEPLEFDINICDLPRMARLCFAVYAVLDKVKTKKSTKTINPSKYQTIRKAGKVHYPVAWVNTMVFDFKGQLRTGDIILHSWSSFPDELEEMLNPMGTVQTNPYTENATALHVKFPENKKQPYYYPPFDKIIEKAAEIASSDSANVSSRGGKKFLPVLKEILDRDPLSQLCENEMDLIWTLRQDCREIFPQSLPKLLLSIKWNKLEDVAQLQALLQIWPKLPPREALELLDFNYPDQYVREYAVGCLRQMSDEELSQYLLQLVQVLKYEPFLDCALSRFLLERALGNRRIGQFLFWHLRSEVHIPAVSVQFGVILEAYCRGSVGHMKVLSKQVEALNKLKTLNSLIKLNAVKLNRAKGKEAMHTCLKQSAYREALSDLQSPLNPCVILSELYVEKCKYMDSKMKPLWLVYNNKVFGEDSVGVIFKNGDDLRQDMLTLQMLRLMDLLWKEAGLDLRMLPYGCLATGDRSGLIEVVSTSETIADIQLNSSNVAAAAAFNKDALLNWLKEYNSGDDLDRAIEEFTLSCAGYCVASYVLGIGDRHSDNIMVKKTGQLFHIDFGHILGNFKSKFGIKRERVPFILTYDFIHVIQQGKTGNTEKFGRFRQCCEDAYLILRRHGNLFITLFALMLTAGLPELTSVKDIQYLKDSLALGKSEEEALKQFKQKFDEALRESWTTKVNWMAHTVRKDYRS
T1 sequence (P27986 whole entry partner): as the sequence (P27986 whole entry partner) above

| IC50 [1, 5] [µM] | IC50 [2, 6] [µM] | IC50 [3, 7] [µM] | IC50 [3, 8] [µM] | Inhibition values (IC50) PI3Ka ([4]; kinobeads assay, Table 6) | IC50 ([4]; kinobeads assay, Table 6, read-out: Inhibition values (IC50) PI3Ka) [µM] | IC50 [1, 9] [µM] | IC50 [2, 10] [µM] | IC50 [3, 11] [µM] | PI3Ka ([4]; Further Kinobeads Data) | IC50 [4, 12] [µM] | SMILES |
| --- | --- | --- | --- | --- | --- | --- | --- | --- | --- | --- | --- |
| > 10 | > 10 | 0.1 to 1 | 0.1 to 1 | D (D >10 μM) | – | – | – | – | – | – | C[C@H]1COCCN1c1nc(-c2ccc(NC(=O)NC3CC3)cc2)nc2c1CCN(CC(C)(C)C)C2 [Example 41, (S)-1-cyclopropyl-3-(4-(4-(3-methylmorpholino)-7-neopentyl-5,6,7,8-tetrahydropyrido[3,4-d]pyrimidin-2-yl)phenyl)urea] |
| > 10 | > 10 | < 0.1 | < 0.1 | D (D >10 μM) | – | – | – | – | – | – | CC(C)CN1CCc2c(nc(-c3ccc(NC(=O)NC4CC4)cc3)nc2N2CCOC[C@@H]2C)C1 [Example 42, (S)-1-cyclopropyl-3-(4-(7-isobutyl-4-(3-methylmorpholino)-5,6,7,8-tetrahydropyrido[3,4-d]pyrimidin-2-yl)phenyl)urea] |
| 1 to 10 | 1 to 10 | < 0.1 | < 0.1 | – | 1 to 10 | – | – | – | – | – | CC(C)N1CCc2c(nc(-c3ccc(NC(=O)NC4CC4)cc3)nc2N2CCOC[C@@H]2C)C1 [Example 43, (S)-1-cyclopropyl-3-(4-(7-isopropyl-4-(3-methylmorpholino)-5,6,7,8-tetrahydropyrido[3,4-d]pyrimidin-2-yl)phenyl)urea] |
| > 10 | > 10 | 0.1 to 1 | 0.1 to 1 | D (D >10 μM) | – | – | – | – | – | – | C[C@H]1COCCN1c1nc(-c2ccc(NC(=O)NC3CC3)cc2)nc2c1CN(C(=O)C(C)(C)C)C2 [Example 45, (S)-1-cyclopropyl-3-(4-(4-(3-methylmorpholino)-6-pivaloyl-6,7-dihydro-5H-pyrrolo[3,4-d]pyrimidin-2-yl)phenyl)urea] |
| > 10 | > 10 | 0.1 to 1 | 0.1 to 1 | D (D >10 μM) | – | – | – | – | – | – | C[C@H]1COCCN1c1nc(-c2ccc(NC(=O)Nc3ccc(F)cc3)cc2)nc2c1CN(C)C2 [Example 52, (S)-1-(4-fluorophenyl)-3-(4-(6-methyl-4-(3-methylmorpholino)-6,7-dihydro-5H-pyrrolo[3,4-d]pyrimidin-2-yl)phenyl)urea] |
| > 10 | > 10 | < 0.1 | < 0.1 | D (D >10 μM) | – | – | – | – | – | – | CCNC(=O)Nc1ccc(-c2nc3c(c(N4CCOC[C@@H]4C)n2)CCN(C(=O)C2CC2)C3)cc1 [Example 56, (S)-1-(4-(7-(cyclopropanecarbonyl)-4-(3-methylmorpholino)-5,6,7,8-tetrahydropyrido[3,4-d]pyrimidin-2-yl)phenyl)-3-ethylurea] |
| > 10 | > 10 | < 0.1 | < 0.1 | D (D >10 μM) | – | – | – | – | – | – | CCNC(=O)Nc1ccc(-c2nc3c(c(N4CCOC[C@@H]4C)n2)CCN(C(=O)C(C)C)C3)cc1 [Example 57, (S)-1-ethyl-3-(4-(7-isobutyryl-4-(3-methylmorpholino)-5,6,7,8-tetrahydropyrido[3,4-d]pyrimidin-2-yl)phenyl)urea] |
| – | – | – | – | – | – | > 10 | > 10 | 1 to 10 | D (D >10 μM) | – | CCNC(=O)Nc1cc(F)c(-c2nc3c(c(N4CCOC[C@@H]4C)n2)CN(C(=O)OCC)C3)cc1F [Example 141, (S)-ethyl 2-(4-(3-ethylureido)-2,5-difluorophenyl)-4-(3-methylmorpholino)-5H-pyrrolo[3,4-d]pyrimidine-6(7H)-carboxylate] |
| – | – | – | – | – | – | > 10 | > 10 | 0.1 to 1 | D (D >10 μM) | – | COC(=O)N1Cc2nc(-c3ccc(NC(=O)NC4CC4)cc3F)nc(N3CCOC[C@@H]3C)c2C1 [Example 146, (S)-methyl 2-(4-(3-cyclopropylureido)-2-fluorophenyl)-4-(3-methylmorpholino)-5H-pyrrolo[3,4-d]pyrimidine-6(7H)-carboxylate] |
| – | – | – | – | – | – | > 10 | > 10 | < 0.1 | D (D >10 μM) | – | C[C@H]1COCCN1c1nc(-c2ccc(NC(=O)NC3CC3)cc2F)nc2c1CN(C)C2 [Example 147, (S)-1-cyclopropyl-3-(3-fluoro-4-(6-methyl-4-(3-methylmorpholino)-6,7-dihydro-5H-pyrrolo[3,4-d]pyrimidin-2-yl)phenyl)urea] |
| – | – | – | – | – | – | > 10 | 1 to 10 | 0.1 to 1 | – | 1 to 10 | CCNC(=O)Nc1ccc(-c2nc3c(c(N4CCOCC4)n2)CN(C(=O)OCC)C3)c(F)c1 [Example 151, Ethyl 2-(4-(3-ethylureido)-2-fluorophenyl)-4-morpholino-5H-pyrrolo[3,4-d]pyrimidine-6(7H)-carboxylate] |
| – | – | – | – | – | – | > 10 | > 10 | 0.1 to 1 | D (D >10 μM) | – | CCNC(=O)Nc1ccc(-c2nc3c(c(N4CCOC[C@@H]4C)n2)CN(C(=O)OC)C3)c(F)c1 [Example 152, (S)-methyl 2-(4-(3-ethylureido)-2-fluorophenyl)-4-(3-methylmorpholino)-5H-pyrrolo[3,4-d]pyrimidine-6-(7H)-carboxylate] |
| – | – | – | – | – | – | > 10 | > 10 | < 0.1 | D (D >10 μM) | – | CCNC(=O)Nc1ccc(-c2nc3c(c(N4CCOC[C@@H]4C)n2)CN(C(=O)OC(C)(C)C)C3)c(F)c1 [Example 153, (S)-tert-butyl 2-(4-(3-ethylureido)-2-fluorophenyl)-4-(3-methylmorpholino)-5H-pyrrolo[3,4-d]pyrimidine-6-(7H)-carboxylate] |
| – | – | – | – | – | – | > 10 | > 10 | 0.1 to 1 | D (D >10 μM) | – | CCNC(=O)Nc1ccc(-c2nc3c(c(N4CCOCC4)n2)CN(C)C3)c(F)c1 [Example 154, 1-ethyl-3-(3-fluoro-4-(6-methyl-4-morpholino-6,7-dihydro-5H-pyrrolo[3,4-d]pyrimidin-2-yl)phenyl)urea] |
| – | – | – | – | – | – | > 10 | > 10 | < 0.1 | D (D >10 μM) | – | CC(=O)N1Cc2nc(-c3ccc(NC(=O)NC4CC4)cc3F)nc(N3CCOC[C@@H]3C)c2C1 [Example 155, (S)-1-(4-(6-acetyl-4-(3-methylmorpholino)-6,7-dihydro-5H-pyrrolo[3,4-d]pyrimidin-2-yl)-3-fluorophenyl)-3-cyclopropylurea] |
| – | – | – | – | – | – | > 10 | > 10 | < 0.1 | D (D >10 μM) | – | CCOC(=O)N1Cc2nc(-c3ccc(NC(=O)NC4CC4)cc3F)nc(N3CCOCC3)c2C1 [Example 156, Ethyl 2-(4-(3-cyclopropylureido)-2-fluorophenyl)-4-morpholino-5H-pyrrolo[3,4-d]pyrimidine-6(7H)-carboxylate] |
| – | – | – | – | – | – | > 10 | > 10 | 0.1 to 1 | – | 1 to 10 | CN1Cc2nc(-c3ccc(NC(=O)NC4CC4)cc3F)nc(N3CCOCC3)c2C1 [Example 159, 1-(Cyclopropyl)-3-(3-fluoro-4-(6-methyl-4-morpholino-6,7-dihydro-5H-pyrrolo[3,4-d]pyrimidin-2-yl)phenyl)urea] |
| – | – | – | – | – | – | > 10 | > 10 | < 0.1 | D (D >10 μM) | – | CCNC(=O)Nc1ccc(-c2nc3c(c(N4CCOC[C@@H]4C)n2)CN(C)C3)c(F)c1 [Example 160, (S)-1-ethyl-3-(3-fluoro-4-(6-methyl-4-(3-methylmorpholino)-6,7-dihydro-5H-pyrrolo[3,4-d]pyrimidin-2-yl)phenyl)urea] |
| – | – | – | – | – | – | 1 to 10 | > 10 | < 0.1 | – | 1 to 10 | CCNC(=O)Nc1ccc(-c2nc3c(c(N4CCOCC4)n2)CN(C(=O)OC)C3)c(F)c1 [Example 162, methyl 2-(4-(3-ethylureido)-2-fluorophenyl)-4-morpholino-5H-pyrrolo[3,4-d]pyrimidine-6(7H)-carboxylate] |
| – | – | – | – | – | – | > 10 | > 10 | < 0.1 | D (D >10 μM) | – | C[C@H]1COCCN1c1nc(-c2ccc(NC(=O)NC3CC3)cc2F)nc2c1CCNC2 [Example 163, (S)-1-cyclopropyl-3-(3-fluoro-4-(4-(3-methylmorpholino)-5,6,7,8-tetrahydropyrido[3,4-d]pyrimidin-2-yl)phenyl)urea] |
| – | – | – | – | – | – | > 10 | > 10 | < 0.1 | D (D >10 μM) | – | CCNC(=O)Nc1ccc(-c2nc3c(c(N4CCOC[C@@H]4C)n2)CCNC3)c(F)c1 [Example 164, (S)-1-ethyl-3-(3-fluoro-4-(4-(3-methylmorpholino)-5,6,7,8-tetrahydropyrido[3,4-d]pyrimidin-2-yl)phenyl)urea] |
| – | – | – | – | – | – | > 10 | > 10 | < 0.1 | D (D >10 μM) | – | C[C@H]1COCCN1c1nc(-c2ccc(NC(=O)NC3CC3)cc2F)nc2c1CCN(C(=O)N(C)C)C2 [Example 165, (S)-2-(4-(3-cyclopropylureido)-2-fluorophenyl)-N,N-dimethyl-4-(3-methylmorpholino)-5,6-dihydropyrido[3,4-d]pyrimidine-7(8H)-carboxamide] |
| – | – | – | – | – | – | 1 to 10 | > 10 | < 0.1 | D (D >10 μM) | – | CCOC(=O)N1Cc2nc(-c3ccc(NC(=O)NCCO)cc3F)nc(N3CCOC[C@@H]3C)c2C1 [Example 167, (S)-Ethyl 2-(2-fluoro-4-(3-(2-hydroxyethyl)ureido)phenyl)-4-(3-methylmorpholino)-5H-pyrrolo[3,4-d]pyrimidine-6(7H)-carboxylate] |
